Read-outs that look alike come from different tables or passages of the source.
Legend:
HBeAg = experiment: PHH natural infection assay, HBeAg (alphalisa); format: cell-based, HBV
Summary of the method: (§1)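 Cryopreserved PHH plated 24 h, infected with HBV at 200 GE/cell plus 4% PEG8000 for 24 h, then sandwich-cultured 72 h with 0.25 mg/mL matrix gel. Compounds at varied concentrations applied twice at 72-h intervals. Supernatant HBsAg and HBeAg measured by AlphaLISA with specific antibodies.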

HBsAg = experiment: PHH natural infection assay, HBsAg (alphalisa); format: cell-based, HBV
Summary of the method: as §1

[1] = Cytotoxicity in PHH natural infection assay (Cell Counting Kit-8); format: cell-based; settings: HBV-infected primary human hepatocytes, CCK8
Summary of the method: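 HBV-infected primary human hepatocytes (200 GE/cell, 4% PEG8000, 24 h), sandwich-cultured 72 h, then given compound-containing medium twice at 72 h intervals. Cytotoxicity read by CCK-8 at end of treatment.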

[2] = Hepatitis B virus, Hepatocyte, read-out: HBeAg IC50, HBV-infected primary human hepatocytes, supernatant, alphalisa
[3] = Hepatitis B virus, Hepatocyte, read-out: HBsAg IC50, HBV-infected primary human hepatocytes, supernatant, alphalisa

Row | SMILES | IC50 (HBeAg; [2]) | IC50 (HBsAg; [3]) | CC50 at 144 h [1] | IC50 (HBeAg; read-out: HBeAg IC50, HBV-infected primary human hepatocytes, supernatant, alphalisa) | IC50 (HBsAg; read-out: HBsAg IC50, HBV-infected primary human hepatocytes, supernatant, alphalisa)
1 | CCN(C)c1cc(C(=O)NC2CC3(C2)CC(c2nc4cc(Cl)ccc4o2)C3)ccn1 (stereo not drawn) [Example 7, N-[6-(5-chloro-1,3-benzoxazol-2-yl)spiro[3.3]heptan-2-yl]-2-[ethyl(methyl)amino]pyridine-4-carboxamide] | 4.34 µM | 4.19 µM | > 10 µM | – | –
2 | [H][C@]1(NC(=O)C2CCS(=O)(=O)CC2)C[C@]2(C1)C[C@]([H])(c1nc3cc(Cl)ccc3o1)C2 (single isomer, unassigned) [Example 82a, (Ra)—N-[6-(5-chloro-1,3-benzoxazol-2-yl)spiro[3.3]heptan-2-yl]-1,1-dioxo-thiane-4-carboxamide] | – | – | > 100 µM | 5.13 µM | 6.57 µM
3 | CNS(=O)(=O)Nc1cc(C(=O)NC2CC3(C2)CC(c2nc4cc(Cl)ccc4o2)C3)ccn1 (stereo not drawn) [Example 22, N-[6-(5-chloro-1,3-benzoxazol-2-yl)spiro[3.3]heptan-2-yl]-2-(methylsulfamoylamino)pyridine-4-carboxamide] | 4.38 µM | 4.94 µM | > 10 µM | – | –
4 | CN1C(=O)CCC1CC(=O)NC1CC2(C1)CC(c1nc3cc(Cl)ccc3o1)C2 (stereo not drawn) [Example 36, N-[6-(5-chloro-1,3-benzoxazol-2-yl)spiro[3.3]heptan-2-yl]-2-(1-methyl-5-oxo-pyrrolidin-2-yl)acetamide] | 3.72 µM | 4.05 µM | > 10 µM | – | –
5 | O=C(NC1CC2(C1)CC(c1nc3cc(Cl)ccc3o1)C2)c1ccnc(S(=O)(=O)C2CNC2)c1 (stereo not drawn) [Example 98, 2-(Azetidin-3-ylsulfonyl)-N-[6-(5-chloro-1,3-benzoxazol-2-yl)spiro[3.3]heptan-2-yl]pyridine-4-carboxamide] | 3.08 µM | 3.59 µM | > 10 µM | – | –
6 | O=C(NC1CC2(C1)CC(c1nc3cc(Cl)ccc3o1)C2)C1CCS(=O)(=O)CC1 (stereo not drawn) [Example 53, N-[6-(5-chloro-1,3-benzoxazol-2-yl)spiro[3.3]heptan-2-yl]-1,1-dioxo-thiane-4-carboxamide] | 5.23 µM | 6.7 µM | > 100 µM | – | –
7 | O=C(NC1CC2(C1)CC(c1nc3cc(Cl)ccc3o1)C2)c1ccnc(S(=O)(=O)C2CC2)c1 (stereo not drawn) [Example 83, N-[6-(5-chloro-1,3-benzoxazol-2-yl)spiro[3.3]heptan-2-yl]-2-cyclopropylsulfonyl-pyridine-4-carboxamide] | 0.05 µM | 0.14 µM | 90.5 µM | – | –
8 | O=C(CC1CCCS(=O)(=O)C1)NC1CC2(C1)CC(c1nc3cc(Cl)ccc3o1)C2 (stereo not drawn) [Example 55, N-[6-(5-chloro-1,3-benzoxazol-2-yl)spiro[3.3]heptan-2-yl]-2-(1,1-dioxothian-3-yl)acetamide] | 2.6 µM | 3.39 µM | 78.9 µM | – | –
9 | N=C(N)c1cc(C(=O)NC2CC3(C2)CC(c2nc4cc(Cl)ccc4o2)C3)ccn1 (stereo not drawn) [Example 96, 2-Carbamimidoyl-N-[6-(5-chloro-1,3-benzoxazol-2-yl)spiro[3.3]heptan-2-yl]pyridine-4-carboxamide] | 5.65 µM | 7.6 µM | > 10 µM | – | –
10 | CS(=O)(=O)c1cc(C(=O)NC2CC3(C2)CC(c2nc4cc(Cl)cnc4o2)C3)ccn1 (stereo not drawn) [Example 88, N-[6-(6-chlorooxazolo[5,4-b]pyridin-2-yl)spiro[3.3]heptan-2-yl]-2-methylsulfonyl-pyridine-4-carboxamide] | 1.65 µM | 2.42 µM | > 10 µM | – | –
11 | CS(=O)(=O)c1cncc(C(=O)NC2CC3(C2)CC(c2nc4cc(Cl)ccc4o2)C3)c1 (stereo not drawn) [Example 24, N-[6-(5-chloro-1,3-benzoxazol-2-yl)spiro[3.3]heptan-2-yl]-5-methylsulfonyl-pyridine-3-carboxamide] | 3.73 µM | 5.99 µM | > 100 µM | – | –
12 | O=C(NC1CC2(C1)CC(c1nc3cc(Cl)ccc3o1)C2)c1ccnc(N2CCS(=O)(=O)CC2)c1 (stereo not drawn) [Example 91, N-[6-(5-chloro-1,3-benzoxazol-2-yl)spiro[3.3]heptan-2-yl]-2-(1,1-dioxo-1,4-thiazinan-4-yl)pyridine-4-carboxamide] | 0.95 µM | 1.1 µM | > 10 µM | – | –
